This note sets out measurements from patent US20240384268A1, “Oligonucleotides” (Hudson Institute of Medical Research, priority 2021, published 2024).

In the oligonucleotide strings, read from the 5' end, every base follows the letter of its sugar. An asterisk marks phosphorothioate; unmarked linkages are phosphodiester. Other units and linkages are bracketed, terminal groups are in braces. A string of capitals states the bases alone. d = 2'-deoxy (DNA); m = 2'-O-methyl

One data set addresses T1, mouse cGAS (Mus musculus, UniProt Q8C6L5).
T1 construct: endogenous in cells; host or cells: LL171 (mouse L929 cells with ISRE-Luciferase)
In words: ISD45-driven ISRE-luciferase in mouse LL171 cells. It counts as cell-based. The following applies: for effect on ISD-driven ISRE-luciferase, LNA and MOE ASOs (in words): 200 nM or indicated concentrations, ~30 min, ISD overnight (FIG. 22-24); for inhibition of ISD45-driven ISRE-luciferase (in words): 2′OMe or PS oligos 50-600 nM, ISD45 2.5 μg/ml overnight. The protocol: In such examples, inhibition of cGAS activity can be identified by observation of an overall decreased cGAS response of the cell population, or a lower proportion of cells having cGAS-positive activity as compared to positive control condition in which cells are treated with cGAS agonist in the absence of the oligonucleotide (or in the presence of an appropriate control inhibitory agent). In one example, THP-1 or HT-29 cells are transfected with ISD70 and incubated with an oligonucleotide. cGAS activity can then be determined by cytokine (e.g., IP-10 and/or IFNβ) expression (e.g., gene and/or protein expression) and/or secretion levels, such as by ELISA. A similar assay can be performed with LL171 cells transfected with ISD45. […] By way of example, cGAS enzymatic activity may be assessed in vitro using recombinant cGAS and then measuring activity thereof by way of a cGAMP ELISA.
For cGAS stimulations, cells were treated for indicated duration with ASOs, prior to transfection with ISD70 (human cells) or ISD45 (mouse cells) (the ASOs were not washed off prior to ISD transfection unless otherwise indicated). The cGAS ligands ISD45 (Stetson and Medzhitov, 2006) and ISD70 (also known as VACV-70 (Unterholzner et al., 2010)) (Table 1) were resuspended as follows: 5 1d of sense and 5 μl of antisense strands at 10 μg/μl were added to 90 μl PBS under sterile conditions, heated at 75° C. for 30 min, prior to letting cool down at room temperature and aliquoting (stock at 1 μg/1 l). The ISDs were transfected at a concentration of […] at a ratio of 1 μg:1 μl with Lipofectamine 2000 in Opti-MEM (Thermo Fisher Scientific). HEK-TLR3, HEK-TLR7 and […] were treated with indicated concentration of ASOs for 20-50 min, prior to stimulation with poly(I:C) (Invivogen), R848 (Invivogen), Motolimod (MedChemExpress) and the Class B CpG oligonucleotides ODN 2006 (synthesised by IDT and resuspended in RNase-free TE buffer [Table 1]), respectively. The TLR2/1 agonist PAM3CSK4 (Invivogen), the TLR4 agonist lipopolysaccharide (Invivogen), the Class B CpG oligonucleotides ODN 1826 (synthesised by IDT and resuspended in RNase-free TE buffer), the mouse Sting agonist DMXAA (Cayman) and the human STING agonist (compound #3 from (Raanjulu et al., 2018), referred to as GSK herein—kind gift from Cancer Therapeutics CRC, Australia) were used at indicated concentrations. Aspirin (Sigma—A2093) was resuspended in pure medium to 10 mM, filter sterilised and added to the cells at 2 mM final. All ASOs were synthesised by Integrated DNA Technologies (IDT), and resuspended in RNase-free TE buffer, pH 8.0 (Thermo Fisher Scientific). Cell viability was assessed by adding 1× fresh resazurin solution to the wells (10λ solution made up with 7 mg resazurin [Sigma—R7017] dissolved in 3.5 ml PBS, sterile filtered at […]) for 4 h, prior to reading at with a Fluostar OPTIMA (BMG LABTECH) plate-reader (fluorescence: Excitation 535 nm, Emission 590); wells with medium only and 1× resazurin were used as blanks.
Following transfection, the cells were collected from the 6-wells and aliquoted into 96-wells, just before ASO and overnight TLR stimulation (as above described).

For data set [1], the target named is T2, TLR7 (Mus musculus, UniProt P58681).
T2 sequence (P58681 27-1050): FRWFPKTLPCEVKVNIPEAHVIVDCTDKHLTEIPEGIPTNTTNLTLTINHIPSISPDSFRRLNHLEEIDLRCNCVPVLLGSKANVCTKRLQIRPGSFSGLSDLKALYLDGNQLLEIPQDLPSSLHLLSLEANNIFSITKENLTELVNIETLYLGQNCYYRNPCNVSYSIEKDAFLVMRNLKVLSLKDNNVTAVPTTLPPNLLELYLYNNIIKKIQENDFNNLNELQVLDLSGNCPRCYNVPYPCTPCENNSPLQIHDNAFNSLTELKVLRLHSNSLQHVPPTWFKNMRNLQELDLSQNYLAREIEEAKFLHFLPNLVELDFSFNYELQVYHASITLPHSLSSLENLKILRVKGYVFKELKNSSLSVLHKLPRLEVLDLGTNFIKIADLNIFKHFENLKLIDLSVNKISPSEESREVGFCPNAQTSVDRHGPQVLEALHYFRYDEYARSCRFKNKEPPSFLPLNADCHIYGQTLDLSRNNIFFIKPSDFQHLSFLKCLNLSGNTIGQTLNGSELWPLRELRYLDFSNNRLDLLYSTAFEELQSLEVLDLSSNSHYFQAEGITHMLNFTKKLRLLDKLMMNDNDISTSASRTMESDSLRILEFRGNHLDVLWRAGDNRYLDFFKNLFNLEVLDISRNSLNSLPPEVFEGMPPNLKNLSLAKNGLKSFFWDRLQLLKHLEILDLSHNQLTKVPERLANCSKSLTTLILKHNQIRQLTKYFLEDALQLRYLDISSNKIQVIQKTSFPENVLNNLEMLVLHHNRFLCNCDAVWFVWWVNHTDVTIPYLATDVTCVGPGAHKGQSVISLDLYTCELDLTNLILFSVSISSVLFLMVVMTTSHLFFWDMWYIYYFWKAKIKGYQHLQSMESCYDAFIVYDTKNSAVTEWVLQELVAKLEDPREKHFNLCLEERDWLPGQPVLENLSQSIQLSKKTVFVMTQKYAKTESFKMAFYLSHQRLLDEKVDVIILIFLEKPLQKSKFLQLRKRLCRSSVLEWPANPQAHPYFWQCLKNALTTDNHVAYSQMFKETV
In words: Guanosine-induced TNFα in primary BMDMs. It counts as cell-based. Details: endogenous in cells; host or cells: primary BMDMs from wild-type mice. The conditions noted are these: WT primary BMDMs; 200 nM ASO 30 min; 500 μM Guanosine overnight.

Data set [2] concerns the target T2, TLR7. As to the kind of experiment: B-406-AS ssRNA-induced TNFα in primary BMDMs. The following applies: WT primary BMDMs; 100 nM ASO 1 h; 250 nM B-406-AS RNA overnight; vs dC20 co-treatment.

T1 sequence (Q8C6L5 whole entry): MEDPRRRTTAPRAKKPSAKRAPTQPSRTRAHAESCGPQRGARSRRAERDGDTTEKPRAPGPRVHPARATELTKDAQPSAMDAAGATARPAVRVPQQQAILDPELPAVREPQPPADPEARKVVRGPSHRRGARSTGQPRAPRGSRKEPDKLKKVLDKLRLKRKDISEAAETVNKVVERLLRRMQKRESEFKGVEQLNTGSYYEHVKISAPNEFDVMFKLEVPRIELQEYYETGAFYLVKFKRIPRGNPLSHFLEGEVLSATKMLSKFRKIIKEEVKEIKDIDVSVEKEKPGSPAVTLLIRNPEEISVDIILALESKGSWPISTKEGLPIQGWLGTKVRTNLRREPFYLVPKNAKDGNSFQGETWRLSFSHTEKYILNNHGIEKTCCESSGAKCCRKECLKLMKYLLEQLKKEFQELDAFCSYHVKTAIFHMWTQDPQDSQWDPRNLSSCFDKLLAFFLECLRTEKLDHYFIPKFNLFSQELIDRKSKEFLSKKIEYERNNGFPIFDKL

Take “GCAGGCTCAGTGATGT (antisense; LNA-modified, pattern not given here) [CTNN2B-1642 LNA V1]”: the “effect on ISD-driven ISRE-luciferase, LNA and MOE ASOs (in words)” value in the data set with mouse cGAS is listed as “increased potentiation of ISD sensing”.
Same read-out and setting: the value for “GTGTCTGGAAGCTTCC (antisense; LNA-modified, pattern not given here) [CTNN2B-809 LNA V1]” was “strongly potentiating the ISRE-Luciferase signal”.
With “mC*mG*mU*T*T*C*C*C*C*C*C*C*C*C*C*C*C*C*C*C (CGUTTCCCCCCCCCCCCCCC; antisense; sugars from the 5' end m3 d17, all phosphorothioate, methylation of C not given here) [[C2]Mut1-v3-dC]”, the “TNFα production induced by guanosine (in words)” value in the data set with TLR7 [1] is given as “did not”. The “inhibition of ISD45-driven ISRE-luciferase (in words)” value in the data set with mouse cGAS is listed as “lacked significant inhibitory activity”.
Take “mG*mC*mG*mG*mU*A*T*C*C*A*T*G*T*C*C*mC*mA*mG*mG*mC (mG*mC*mG*mG*mU*dA*dT*dC*dC*dA*dT*dG*dT*dC*dC*mC*mA*mG*mG*mC; antisense) [C2-Mut1]”: in the data set with TLR7 [2], the “TNFα production induced by ssRNA sensing (in words)” value is given as “significantly reduced TNFα production”. Further, the “TNFα production induced by guanosine (in words)” value with TLR7 [1] is reported as “significantly inhibiting TNFα levels”. Further, in the data set with mouse cGAS, the “inhibition of ISD45-driven ISRE-luciferase (in words)” value is “significantly more inhibitory”.
For “mG*mG*mU*A*T*C*C*C*C*C*C*C*C*C*C*C*C*C*C*C (GGUATCCCCCCCCCCCCCCC; antisense; sugars from the 5' end m3 d17, all phosphorothioate, methylation of C not given here) [[C2]Mut1-dC]”, in that order: “significantly reduced TNFα production”, “significantly inhibiting TNFα levels” and “significantly more inhibitory than its precursor dC20”.
